Measurements: patent US20070135515A1, “Method for producing sorbicillactone a” (priority 2004, published 2007)
“Also recorded” adds a separate entry of the source.

Columns and labels:
neuronal cells = experiment: Intracellular calcium level [Ca2+]i in primary neurons (Fura-2 fluorescence ratio 340/380 nm); type: cell-based, rat; conditions: 200 μM stimulant and 2.5 mM Ca2+, without sorbicillactone A
Description: Material: The same materials as described in Perovic et al. (1998, Mech. Ageing Dev. 101:1-19) were used. Fura-2-acetoxymethylester (Fura-2-AM) was obtained from Molecular Probes (Leiden, The Netherlands), Dulbecco's modified Eagle's Medium with 4.5 g/L glucose (DMEM/HG), L-glutamic acid (L-Glu), and serotonin (5-HT) from Sigma-Aldrich (Taufkirchen, Germany) and the antibodies mouse-anti-neurofilament (68 kDa) and mouse-anti-glial-fibrillary-acidic-protein (GFAP) from Roche Diagnostics (Mannheim, Germany). Sorbicillactone A of the batch: 2208/2a was used.
Primary neurons: The cortical cell culture was produced from the brains of 17-18 day-old rat embryos, according to a modified procedure [Freshney (1987) Culture of specific cell types. In: Culture of Animal Cells. A Manual of Basic Technique, A. R. Liss, New York, S. 257-288; Perovic et al. (1994) Eur. J. Pharmacol. (Mol. Pharmacol. Sec.) 288:27-33]. After the isolation, the cerebral-hemispheres were put into Hank's Balanced Salt Solution (HBSS) without Ca^2+ and Mg^2+, and the neuronal cells were subsequently dissociated in HBSS using 0.025% (w/v) trypsin (10 min.; 37° C.). The proteolytic reaction was stopped with 10% (v/v) foetal calf serum (FCS). The single-cell suspensions were centrifuged, and the resulting pellet was taken up into Dulbecco's modified Eagles's Medium with 4.5 g/L glucose (DMEM/HG) (contains 2 mM L-glutamine, 100 mU/L insulin, and 10% (v/v) FCS). The cells were plated in a chamber with poly-L-lysine (5 μg/mL, 300 μl/cm^2) in a cell density of 2.0×10^5 cells/cm^2. After two days the DMEM/HG/10%-FCS-medium was removed and replaced with DMEM/HG/serum-free medium. Two weeks after the isolation, the immune staining took place with anti-neurofilament (68 kDa) as a marker for neurons, and anti-GFAP as a marker for glial cells. The cultures contained >80% neurons; the residual 20% were GFAP-positive cells, mainly astrocytes (Ushijima et al. (1995) Eur. J. Neurosci. 7:1353-9). The neurons were held in an atmosphere of 95% air and 5% CO2 at 37° C.
Loading of neurons with Fura-2-AM: The intracellular Ca^2+-concentration ([Ca^2+]i) was determined by fluorescence measurements. The ratio of the absorption of the Ca^2+-indicator dye Fura-2-AM at 340 and 380 nm (Grynkiewicz et al. (1985) J. Biol. Chem. 260:3440-50) was decisive. The neurons were loaded with 6 μM Fura-2-AM in DMEM/HG/serum-free medium (supplemented with 1% (w/v) bovine serum albumin) at 37° C. for 60 min. After incubation, the cells were washed two times with medium, and further incubated for 45 min at 37° C.
Calcium-calibration curve: A calcium-calibration curve was produced according to the methods of Grynkiewicz et al. (1985, J. Biol. Chem. 260:3440-50). Fluorescence pictures were obtained for each buffer at 340 and 380 nm. The quotient from both fluorescence spectra (340/380 nm) was calculated, and depicted as a calibration curve. The quotient (340/380 nm [ratio-value]) of 1.0 corresponds to 228 nM [Ca^2+]i.
Changes of the calcium level in neurons: In all experimental settings, the cells were first loaded with Fura-2-AM, and subsequently stimulated with different substances (in Locke's solution; 154 mM NaCl; 5.6 mM KCl; 3.6 mM NaHCO3; 5.6 mM glucose, and 10 mM Hepes; pH 7.4; without CaCl2). Sorbicillactone A was dissolved in a concentration of 10 mg/mL in 100% (v/v) DMSO, and stored at −20° C. In the first setting, the neurons were stimulated for 5 min with 0.1% (v/v) DMSO (control); after 10 min 200 μM L-glutamic acid (L-Glu), 200 μM serotonin (5-HT), and 2.5 mM CaCl2 were added to the cells. In a second setting, the effect of L-Glu, 5-HT, and 2.5 mM CaCl2 on the calcium level of pre-incubated neurons (each 5 min with 10 μg/mL sorbicillactone A) was tested. In all experiments, the [Ca^2+]i-level was measured for at least 20-25 min. […]

[1] = tested on: L5178Y-mouse lymphoma cells (ATCC CRL 1722); experiment: Apoptosis detection (Cell Death Detection ELISA plus); type: cell-based; conditions: for MW ± SD (OD) / % of the control (negative): 4 hours incubation; for MW ± SD (OD): 405 nm; for % of the control (negative): negative control = 100%
Description: Material: RPMI1640-medium, Hepes buffered, was obtained from Sigma-Aldrich (Taufkirchen, Germany), foetal calf serum (FCS) from Gibco (Karlsruhe, Germany), and Cell Death Detection ELISA plus from Roche (Mannheim, Germany, Cat. No. 1774425). Sorbicillactone A of the batch: 2208/2a was used.
Incubation and preparation of the cells: The L5178Y-mouse lymphoma cells (ATCC CRL 1722)) were counted, and adjusted to a number of cells of 10^4 cells/mL. The sorbicillactone-A- and dihydrosorbicillactone-A-stock solution (10 mg/mL in DMSO) was diluted with medium (RPMI/Hepes with 10% FCS) to concentrations of 60, 20, and 6 μg/mL. In a 96-well-culture plate, 100 μl cell suspension (˜10^3 cells) were each pipetted to each of the 100 μl of the different dihydrosorbicillactone-A- and sorbicillactone-A-solutions. RPMI1640-medium without dihydrosorbicillactone and sorbicillactone A was used as a negative control. The final concentrations were 30, 10, and 3 μg/mL sorbicillactone A and dihydrosorbicillactone A. Four parallel settings of each sample were analysed. The cells were incubated for 4 hours at 37° C. After the incubation, the culture plate was centrifuged at […] (˜1200 rpm) for 10 min at room temperature. The supernatant was carefully pipetted off, and the cells were each overlayered with 200 μl lysis-buffer (Roche-Kit). Then, the cells were lysed for 30 min at room temperature. After the lysis, the culture plate was again centrifuged at 200×g (˜1200 rpm) for 10 min at room temperature.
ELISA: Two strips with eight wells each were taken from the streptavidin-ELISA-plate of the Roche-kit. 20 μl of the supernatant of a cell-lysis (see above) were added into each well. In doing so, the samples with 30 or 10 μg/mL of sorbicillactone A and dihydrosorbicillactone A were loaded as 4-fold, and all other as duplicate determinations. In addition to these sample, a positive control (DNA-histone-complex) was loaded. Then, 80 μl of immune reagent were added into each well. This solution consisted of incubation buffer, anti-histone-biotin, and anti-DNA-peroxidase. The incubation buffer was used as a blank value. The ELISA-plate was incubated for 2 hours in a shaking incubator at room temperature. Them the supernatants were carefully removed, and the wells were each washed 3× with 250 μl of the incubation buffer. After the washing, 100 μl of ABTS-solution were added into each “well”. Subsequently, the cells were incubated for 30 min in the dark at room temperature. The measurement took place in a multiscan at an emission wavelength of 405 nm.

[2] = Relative activity compared with sorbicillactone A (test not specified)

Compound	increase of the 340-/380-nm-values (neuronal cells)	increase of the 340-/380-nm-values, control assumed to be 100% (neuronal cells) [%]	MW ± SD (OD) ([1]; 3 μg/mL)	% of the control (negative) ([1]; 3 μg/mL) [%]	MW ± SD (OD) ([1]; 10 μg/mL)	% of the control (negative) ([1]; 10 μg/mL) [%]	MW ± SD (OD) ([1]; 30 μg/mL)	% of the control (negative) ([1]; 30 μg/mL) [%]	induction of apoptosis ([1]; 3, 10, and 30 μg/mL, 4 hours of incubation)	activity relative to sorbicillactone A [2]
N[C@@H](CCC(=O)O)C(=O)O [L-glutamic acid]	1.715±0.081	307.1	–	–	–	–	–	–	–	–
NCCc1c[nH]c2ccc(O)cc12 [Serotonin, serotonin]	0.971±0.112	219.9	–	–	–	–	–	–	–	–
C/C=C/CC/C(O)=C1/C(=O)C(C)=C(O)[C@@]2(C)OC(=O)[C@@](C)(NC(=O)/C=C/C(=O)O)[C@@H]12 [dihydrosorbicillactone A]	–	–	0.016 ± 0.003	76.2	0.013 ± 0.002	61.9	0.016 ± 0.004	76.2	did not result in an induction of apoptosis; also recorded: did not induce apoptosis	five-fold less active
